# Tested on: psychosis
# Test: not given
# Settings: Snyder, Largent 1989; cited from earlier work
row,SMILES,clinical effect in psychosis
1,"C[C@@H]1CN(CCCn2c3ccccc3c3ccccc32)C[C@H](C)N1 [rimcazole, reference compound]",clinically shows effects in the treatment of psychosis

# Target: sigma receptors
# Test: Inhibition of 3H-DTG binding to sigma receptors in rat brain in vitro
# Settings: 2 nM 3H-DTG, rat brain without cerebellum, 25° C., 20 min
row,SMILES,IC50
1,"c1ccc2c(c1)COC1(CCN(CCCCc3noc4ccccc34)CC1)C2 [Compound 19c, 1-(4-(1,2-Benzisoxazol-3-yl)-1-butyl)spiro[3H-2-benzopyran-3,4'-piperidine]]",0.84 nM
2,"Clc1cccc(Cl)c1C1CCN(CCCCc2noc3ccccc23)CC1 [Compound 19d, 3-[4-(4-(2,6-Dichlorophenyl)-1-piperidyl)-1-butyl]-1,2-benzisoxazol]",4.4 nM
3,"c1ccc2c(c1)COC21CCN(CCCc2noc3ccccc23)CC1 [Compound 20, 1'-(3-(1,2-Benzisoxazol-3-yl)-1-propyl)spiro[isobenzofuran-1(3H) ,4'-piperidine]]",0.63 nM
4,"Fc1ccc(C2CCN(CCCOc3nsc4ccccc34)CC2)cc1 [Compound 21, 3-[3-(4-(4-Fluorophenyl)-piperidin-1-yl)-1-propyloxy]-1,2-benzisothiazole]",0.2 nM
5,"c1ccc2c(c1)COC21CCN(CCCCc2nsc3ccccc23)CC1 [Compound 22, 1'-(4-(1,2-Benzisothiazol-3-yl)-1-butyl)spiro[isobenzofuran-1(3H),4'-piperidine]]",0.05 nM
6,"Fc1ccc(C2=CC3CCC(C2)N3CCCCc2cn(-c3ccc(F)cc3)c3ccccc23)cc1 (stereo not shown) [Compound 23, 1-(4-Fluorophenyl)-3-[4-[3-(4-fluorophenyl)-8-azabicyclo[3,2,1]-oct-2-en-8-yl]-1-butyl]-indol]",2.5 nM
7,Fc1ccc(C2CC3CCC(C2)N3CCCCc2noc3ccccc23)cc1 (stereo not shown) [Compound 24],1.9 nM
8,"c1ccc(CCCCN2CCC3(CC2)Oc2ccccc2O3)cc1 [Compound 25a, 1'-(4-Phenyl-1-butyl)-spiro[1,3-benzodioxole-2,4'-piperidine]]",11 nM
9,"c1ccc2c(c1)OC1(CCN(CCCCc3c[nH]c4ccccc34)CC1)O2 [Compound 25b, 1'-[4-(3-Indolyl)-1-butyl]-spiro[1.3-benzodioxole-2,4'-piperidine]]",36 nM
10,"OC(CCCN1CCC2(CC1)OCc1ccccc12)c1ccc(F)cc1 (stereo not shown) [Compound 26a, 1'-[4-(4-Fluorophenyl)-4-hydroxy-1-butyl]-spiro[isobenzofuran-1(3H),4'-piperidine]]",0.89 nM
11,"OC(CCCN1CCC2(CC1)OCc1ccccc12)c1ccccc1 (stereo not shown) [Compound 26b, 1'-(4-Phenyl-4-hydroxy-1-butyl)-spiro[isobenzofuran-1(3H),4'-piperidine]]",1.9 nM
12,"OC(CCCN1CCC2(CC1)OCc1ccccc12)C1CCCCC1 (stereo not shown) [Compound 26c, 1'-(4-Cyclohexyl-4-hydroxy-1-butyl)spiro[isobenzofuran-1(3h),4'-piperidine]]",0.14 nM
13,"C1=C(CCCCN2CCC3(CC2)OCc2ccccc23)c2ccccc2C1 [Compound 27, 1'-(4-(1H-Inden-3-yl)-1-butyl)-spiro[isobenzofuran-1(3H) ,4'-piperidine]]",0.11 nM
14,"c1ccc2c(c1)CCC2CCCCN1CCC2(CC1)OCc1ccccc12 (stereo not shown) [Compound 28, 1'-[4-(Indan-1-yl)-1-butyl]-spiro(isobenzofuran-1(3H),4'-piperidine]]",0.15 nM
15,"C(=CC1CCc2ccccc21)CCN1CCC2(CC1)OCc1ccccc12 (stereo not shown) [Compound 29, 1'-[4-(1-Indanyl)-but-3-en-1-yl]-spiro[isobenzofuran-1(3H),4'-piperidine]]",0.12 nM
16,"Fc1ccc(N2CC(CCCCN3CCC4(CC3)OCc3ccccc34)c3ccccc32)cc1 (stereo not shown) [Compound 30, 1'-(4-(2,3-Dihydro-1-(4-fluorophenyl)-3-indolyl)-1-butyl)spiro[isobenzofuran-1(3H),4'-piperidine]]",0.07 nM
17,c1ccc2c(c1)COC21CCN(CCCSc2csc3ccccc23)CC1 [Compound 31a],0.23 nM
18,"c1ccc2c(c1)COC1(CCN(CCCSc3csc4ccccc34)CC1)C2 [Compound 31b, 1'-[3-(Benzo[b]thiophen-3-ylthio)-1-propyl] spiro[3H-2-benzopyran-3,4'-piperidine]]",2.6 nM
19,"O=S1(=O)CC(=CCCCN2CCC3(CC2)OCc2ccccc23)c2ccccc21 [Compound 32, 1'-[4-(2. 3-Dihydro-benzo[b]thiophen-3-yliden)-1-butyl]spiro[isobenzofuran-1(3H),4'-piperidine]-S,S-dioxide]",0.89 nM
20,"O=S1(=O)CC(CCCCN2CCC3(CC2)OCc2ccccc23)c2ccccc21 (stereo not shown) [Compound 33, 1'-[4-(2,3-Dihydro-benzo[b]thiophen-3-yl)-1-butyl]spiro[isobenzofuran-1(3H),4'-piperidine]-S,S-dioxide]",0.95 nM
21,"c1ccc2c(c1)COC21CCN(CCCOc2csc3ccccc23)CC1 [Compound 34, 1'-[3-(Benzo[b]thiophen-3-yloxy)-1-propyl]spiro[isobenzofuran-1(3H),4'-piperidine]]",0.27 nM
22,"c1ccc2c(c1)COC21CCN(CCOCc2csc3ccccc23)CC1 [Compound 35a, 1'-[2-(Benzo[b]thiophen-3-ylmethyloxy)-1-ethyl]spiro[isobenzofuran-1(3H),4'-piperidine]]",0.73 nM
23,"Fc1ccc2occ(COCCN3CCC4(CC3)OCc3ccccc34)c2c1 [Compound 35b, 1'-[2-(5-Fluorobenzofuran-3-ylmethyloxy)-1-ethyl]spiro[isobenzofuran-1(3H),4'-piperidine]]",2.8 nM
24,"CN(C)CCn1cc(CCCCN2CCC3(CC2)OCc2ccccc23)c2ccccc21 [Compound 36, 1'-[4-(1-(2-Dimethylamino-1-ethyl)-3-indolyl)-1-butyl]spiro[isobenzofuran-1(3H) ,4'-piperidine]]",4.5 nM

# From patent US6207677A, “Piperidine derivatives having anxiolytic effect” (H. Lundbeck A/S, priority 1991, dated 2001)
